Read-outs that look alike come from different tables or passages of the source.
Key:
[1] = biological target: isolated recombinant JAK1 kinase domain (Homo sapiens (Human), UniProt P23458); test: JAK1 enzyme assay (Caliper LabChip, Ki); format: biochemical
Procedure: (§1) JAK Enzyme Assays were carried out as follows:
(§2) The activity of the isolated recombinant JAK1 and JAK2 kinase domain was measured by monitoring phosphorylation of a peptide derived from JAK3 (Val-Ala-Leu-Val-Asp-Gly-Tyr-Phe-Arg-Leu-Thr-Thr, fluorescently labeled on the N-terminus with 5-carboxyfluorescein) using the Caliper LabChip® technology (Caliper Life Sciences, Hopkinton, Mass.). […] Reactions were incubated at 22° C. in 384-well polypropylene microtiter plates for 30 minutes and then stopped by addition of 25 μL of an EDTA containing solution (100 mM HEPES buffer (pH 7.2), 0.015% Brij-35, 150 mM EDTA), resulting in a final EDTA concentration of 50 mM. After termination of the kinase reaction, the proportion of phosphorylated product was determined as a fraction of total peptide substrate using the Caliper LabChip® 3000 according to the manufacturer's specifications. Ki values were then determined using the Morrison tight binding model (Morrison, J. F., Biochim. Biophys. Acta. 185:269-296 (1969); William, J. W. and Morrison, J. F., Meth. Enzymol., 63:437-467 (1979)) modified for ATP-competitive inhibition [Ki=Ki,app/(1+[ATP]/Km,app)].

[2] = biological target: isolated recombinant JAK2 kinase domain (Homo sapiens (Human), UniProt O60674); test: JAK2 enzyme assay (Caliper LabChip, Ki); format: biochemical
Procedure: as §1
as §2, with “([…]” for “(Val-Ala-Leu-Val-Asp-Gly-Tyr-Phe-Arg-Leu-Thr-Thr,”, “specifications.” for “specifications. Ki values were then determined using the Morrison tight binding model (Morrison, J. F., Biochim. Biophys. Acta. 185:269-296 (1969); William, J. W. and Morrison, J. F., Meth. Enzymol., 63:437-467 (1979)) modified for ATP-competitive inhibition [Ki=Ki,app/(1+[ATP]/Km,app)].”

[3] = test system: JAK1-dependent STAT6 phosphorylation downstream of IL-13 stimulation in BEAS-2B human bronchial epithelial cells; test: JAK1 pathway assay in BEAS-2B cells (IL-13-pSTAT6, MSD); format: cell-based; details: Homo sapiens, BEAS-2B, BEAS-2B cells, IL-13 stimulation; read-out: IL-13 p-STAT6 BEAS-2B IC50
Procedure: JAK1 Pathway Assay in Cell Lines was carried out as follows:
Inhibitor potency (EC50) was determined in cell-based assays designed to measure JAK1 dependent STAT phosphorylation.
In one assay approach, TF-1 human erythroleukemia cells obtained from the American Type Culture Collection (ATCC; Manassas, Va.) were used to measure JAK1-dependent STAT6 phosphorylation downstream of IL-13 stimulation. Prior to use in the assays, TF-1 cells were starved of GM-CSF overnight in OptiMEM medium (Life Technologies, Grand Island, N.Y.) supplemented with 0.5% charcoal/dextran stripped fetal bovine serum (FBS), 0.1 mM non-essential amino acids (NEAA), and 1 mM sodium pyruvate. The assays were run in 384-well plates in serum-free OptiMEM medium using 300,000 cells per well. In a second assay approach, BEAS-2B human bronchial epithelial cells obtained from ATCC were plated at 100,000 cells per well of a 96-well plate one day prior to the experiment. The BEAS-2B assay was run in complete growth medium (bronchial epithelial basal medium plus bulletkit; Lonza; Basel, Switzerland).
Test compounds were serially diluted 1:2 in DMSO and then diluted 1:50 in medium just before use. Diluted compounds were added to the cells, for a final DMSO concentration of 0.2%, and incubated for 30 min (for the TF-1 assay) or 1 hr (for the BEAS-2B assay) at 37° C. Then, cells were stimulated with human recombinant cytokine at their respective EC90 concentrations, as previously determined for each individual lot. Cells were stimulated with IL-13 (R&D Systems, Minneapolis, Minn.) for 15 min at 37° C. The TF-1 cell reactions were stopped by the direct addition of 10× lysis buffer (Cell Signaling Technologies, Danvers, Mass.), whereas the BEAS-2B cell incubations were halted by the removal of medium and addition of 1× lysis buffer. The resultant samples were frozen in the plates at −80° C. Compound mediated inhibition of STATE phosphorylation was measured in the cell lysates using MesoScale Discovery (MSD) technology (Gaithersburg, Md.).

isolated recombinant JAK2 kinase domain, sequence (O60674 849-1124): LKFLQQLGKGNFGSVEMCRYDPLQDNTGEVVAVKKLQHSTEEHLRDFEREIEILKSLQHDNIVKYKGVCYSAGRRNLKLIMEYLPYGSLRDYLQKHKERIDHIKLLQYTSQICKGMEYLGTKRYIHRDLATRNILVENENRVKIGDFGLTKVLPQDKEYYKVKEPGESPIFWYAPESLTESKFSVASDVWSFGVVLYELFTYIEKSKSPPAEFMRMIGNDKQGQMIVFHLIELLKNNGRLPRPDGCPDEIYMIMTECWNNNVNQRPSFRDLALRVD
isolated recombinant JAK1 kinase domain, sequence (P23458 875-1153): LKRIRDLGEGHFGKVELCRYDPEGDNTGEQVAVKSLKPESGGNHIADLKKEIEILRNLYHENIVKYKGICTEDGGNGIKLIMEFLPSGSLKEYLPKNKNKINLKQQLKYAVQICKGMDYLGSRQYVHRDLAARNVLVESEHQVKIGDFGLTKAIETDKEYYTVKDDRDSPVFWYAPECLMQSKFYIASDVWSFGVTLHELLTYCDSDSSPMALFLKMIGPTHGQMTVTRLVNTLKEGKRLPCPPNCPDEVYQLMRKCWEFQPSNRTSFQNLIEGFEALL

For `CCc1ccc(-c2ccc(CN3CCC(CC#N)(n4cc(C(N)=O)c(NC(=O)C5CC5C#N)n4)C(F)C3)cc2O)cc1` (stereo not shown) [Example 221, 3-[(2-cyanocyclopropanecarbonyl)amino]-1-[4-(cyanomethyl)-1-[[4-(4-ethylphenyl)-3-hydroxy-phenyl]methyl]-3-fluoro-4-piperidyl]pyrazole-4-carboxamide], the Ki ([1]; read-out: JAK1 Ki) was 0.3 nM, the Ki [2] was 1.7 nM and the IC50 [3] was 90 nM.
`N#CCC1(n2cc(C(N)=O)c(NC(=O)C3CC3)n2)CCN(Cc2ccc(Br)c(F)c2)CC1` [Example 77] gave a Ki ([1]; read-out: JAK1 Ki) of 2.6 nM, a Ki [2] of 44.7 nM and an IC50 [3] of 227 nM.
In the case of `COC(=O)Nc1nn(C2(CC#N)CCN(Cc3c(F)cc(-c4ccccc4)c(O)c3F)CC2F)cc1C(N)=O` (stereo not shown) [Example 248, Methyl N-[4-carbamoyl-1-[4-(cyanomethyl)-1-[(2,6-difluoro-3-hydroxy-4-phenylphenyl)methyl]-3-fluoropiperidin-4-yl]-1H-pyrazol-3-yl]carbamate], the Ki ([1]; read-out: JAK1 Ki) is reported as 0.28 nM, the Ki [2] is reported as 0.25 nM and the IC50 [3] is reported as 30 nM.
For `N#CCC1(n2cc(C(N)=O)c(NC(=O)C3CC3)n2)CCN(Cc2ccc(-c3ccccn3)cc2)CC1` [Example 185, 1-[4-(cyanomethyl)-1-[[4-(2-pyridyl)phenyl]methyl]-4-piperidyl]-3-(cyclopropanecarbonylamino) pyrazole-4-carboxamide], the Ki ([1]; read-out: JAK1 Ki) was 2.3 nM and the IC50 [3] was 209 nM.
`N#CC[C@]1(n2cc(C(N)=O)c(NC(=O)C3CC3)n2)CC[C@@H](NCc2ccccc2F)CC1` [Example 112] showed a Ki [1] of over 562 nM and a Ki [2] of over 319 nM.
Work on `N#CC[C@]1(n2cc(C(N)=O)c(NC(=O)C3CC3)n2)CC[C@@H](NCc2ccccc2Cl)CC1` [Example 118] yielded a Ki [1] of over 562 nM and a Ki [2] of over 319 nM.
Compound `N#CCC1(n2cc(C(N)=O)c(NC(=O)C3CC3)n2)CCN(Cc2cccc(Cl)c2)CC1` [Example 59] has a Ki ([1]; read-out: JAK1 Ki) of 4.7 nM and a Ki [2] of 35.9 nM.
With `N#CCC1(n2cc(C(N)=O)c(NC(=O)C3CC3)n2)CCN(Cc2ccc(SC(F)(F)F)cc2)CC1` [Example 68] the Ki ([1]; read-out: JAK1 Ki) was 39 nM and the Ki [2] was over 319 nM.
With `N#CCC1(n2cc(C(N)=O)c(NC(=O)C3CC3)n2)CCN(Cc2cccc(I)c2)CC1` [Example 54] the Ki ([1]; read-out: JAK1 Ki) was 10.7 nM and the Ki [2] was 102 nM.
With `N#CCC1(n2cc(C(N)=O)c(NC(=O)C3CC3)n2)CCN(Cc2cccc(C#N)c2)CC1` [Example 65] the Ki ([1]; read-out: JAK1 Ki) was 13.7 nM and the Ki [2] was 123 nM.
In the case of `CC(C)(C)OC(=O)N[C@H]1CC[C@@](CC#N)(n2cc(C(N)=O)c(NC(=O)C3CC3)n2)CC1` [Example 36], the Ki [1] is reported as over 562 nM and the Ki [2] is reported as over 319 nM.
Work on `CS(=O)(=O)Nc1ccccc1CN1CCC(CC#N)(n2cc(C(N)=O)c(NC(=O)C3CC3)n2)CC1` [Example 44] yielded a Ki ([1]; read-out: JAK1 Ki) of 27.6 nM and a Ki [2] of 174 nM.
`CN(CC(F)(F)F)[C@H]1CC[C@@](CC#N)(n2cc(C(N)=O)c(NC(=O)C3CC3)n2)CC1` [Example 130] showed a Ki [1] of over 562 nM and a Ki [2] of over 319 nM.
Work on `CN[C@H]1CC[C@@](CC#N)(n2cc(C(N)=O)c(NC(=O)C3CC3)n2)CC1` [Example 100] yielded a Ki [1] of over 562 nM and a Ki [2] of over 319 nM.
`CS(=O)(=O)c1ccccc1CN1CCC(CC#N)(n2cc(C(N)=O)c(NC(=O)C3CC3)n2)CC1` [Example 69] was tested, and the Ki ([1]; read-out: JAK1 Ki) was 15.2 nM and the Ki [2] was 124 nM.
Work on `N#CCC1(n2cc(C(N)=O)c(NC(=O)C3CC3)n2)CCN(Cc2cccc(OC(F)F)c2)CC1` [Example 92] yielded a Ki ([1]; read-out: JAK1 Ki) of 10.9 nM and a Ki [2] of 88.1 nM.
Work on `N#CC[C@]1(n2cc(C(N)=O)c(NC(=O)C3CC3)n2)CC[C@H](N2CC(F)(F)C2)CC1` [Example 179, 1-[1-(cyanomethyl)-4-(3,3-difluoroazetidin-1-yl)cyclohexyl]-3-(cyclopropanecarbonylamino) pyrazole-4-carboxamide] yielded a Ki [1] of over 562 nM and a Ki [2] of over 319 nM.
For `N#CCC1(n2cc(C(N)=O)c(NC(=O)C3CC3)n2)CCN(Cc2ccc3cc[nH]c3c2)CC1` [Example 72], the Ki ([1]; read-out: JAK1 Ki) was 8.3 nM and the Ki [2] was 31.3 nM.
`N#CCC1(n2cc(C(N)=O)c(NC(=O)C3CC3)n2)CCN(CC(O)c2ccccc2)CC1` (stereo not shown) [Example 20, 1-(4-(cyanomethyl)-1-(2-hydroxy-2-phenylethyl)piperidin-4-yl)-3-(cyclopropanecarboxamido)-1H-pyrazole-4-carboxamide] showed a Ki [1] of 447 nM and a Ki [2] of over 319 nM.
`N#CC[C@]1(n2cc(C(N)=O)c(NC(=O)C3CC3)n2)CC[C@@H](NCc2cccc(C#N)c2)CC1` [Example 124] was tested, and the Ki [1] was 32.7 nM and the Ki [2] was 273 nM.
`N#CC[C@]1(n2cc(C(N)=O)c(NC(=O)C3CC3)n2)CC[C@H](NCc2ccc(C#N)cc2)CC1` [Example 121] was tested, and the Ki [1] was 14.6 nM and the Ki [2] was 282 nM.
`N#CCC1(n2cc(C(N)=O)c(NC(=O)C3CC34CC4)n2)CCN(CC(F)(F)F)CC1` (stereo not shown) [Example 25] gave a Ki ([1]; read-out: JAK1 Ki) of 81.2 nM and a Ki [2] of over 319 nM.
`N#CCC1(n2cc(C(N)=O)c(NC(=O)C3CC3)n2)CCN(Cc2cccc(-c3ccccc3)c2)CC1` (racemic) [Example 37] gave a Ki [1] of 34.6 nM and a Ki [2] of 268 nM.
`CN[C@H]1CC[C@](CC#N)(n2cc(C(N)=O)c(NC(=O)C3CC3)n2)CC1` [Example 99] gave a Ki [1] of 92.2 nM and a Ki [2] of over 319 nM.
`N#CC[C@]1(n2cc(C(N)=O)c(NC(=O)C3CC3)n2)CC[C@@H](NCCC(F)(F)F)CC1` [Example 126] gave a Ki [1] of 188 nM and a Ki [2] of over 319 nM.
Compound `N#CCC1(n2cc(C(N)=O)c(NC(=O)C3CC3)n2)CCN(Cc2ccccc2-c2ccccc2)CC1` [Example 38] has a Ki ([1]; read-out: JAK1 Ki) of 8.1 nM and a Ki [2] of 107 nM.
`N#CCC1(n2cc(C(N)=O)c(NC(=O)C3CC3)n2)CCN(Cc2ccc(N3CCCCC3)cc2)CC1` (racemic) [Example 39] was tested, and the Ki [1] was 98.2 nM and the Ki [2] was over 319 nM.
`N#CCC1(n2cc(C(N)=O)c(NC(=O)C3CC3)n2)CCN(Cc2ccc(-c3cccnc3)cc2)CC1` [Example 158] gave a Ki ([1]; read-out: JAK1 Ki) of 8 nM and a Ki [2] of 39.4 nM.
With `N#CCC1(n2cc(C(N)=O)c(NC(=O)C3CC3)n2)CCN(Cc2ccccc2)CC1` [Example 40] the Ki ([1]; read-out: JAK1 Ki) was 7.9 nM and the Ki [2] was 96.7 nM.
With `N#CC[C@]1(n2cc(C(N)=O)c(NC(=O)C3CC3)n2)CC[C@@H](NCc2ccc(Cl)cc2)CC1` [Example 120] the Ki [1] was 12 nM and the Ki [2] was 115 nM.
`N#CCC1(n2cc(C(N)=O)c(NC(=O)C3CC3)n2)CCN(Cc2cccc(NS(=O)(=O)c3ccccc3)c2)CC1` [Example 74] gave a Ki ([1]; read-out: JAK1 Ki) of 6.1 nM and a Ki [2] of 58.7 nM.
`CS(=O)(=O)Nc1ccc(CN2CCC(CC#N)(n3cc(C(N)=O)c(NC(=O)C4CC4)n3)CC2)cc1` [Example 46] showed a Ki ([1]; read-out: JAK1 Ki) of 41.4 nM and a Ki [2] of 284 nM.
Work on `CC(c1ccccc1)N1CCC(CC#N)(n2cc(C(N)=O)c(NC(=O)C3CC3)n2)CC1` (stereo not shown) [Example 22] yielded a Ki ([1]; read-out: JAK1 Ki) of 37.4 nM and a Ki [2] of 151 nM.
Work on `N#CCC1(n2cc(C(N)=O)c(NC(=O)C3CC3)n2)CCN(CCc2ccccc2)CC1` [Example 183, 1-[4-(cyanomethyl)-1-(2-phenylethyl)-4-piperidyl]-3-(cyclopropanecarbonylamino) pyrazole-4-carboxamide] yielded a Ki ([1]; read-out: JAK1 Ki) of 88.3 nM and a Ki [2] of over 319 nM.
With `CNC(=O)Nc1cn(C2(CC#N)CCN(CC(F)(F)F)CC2)nc1C(N)=O` [Example 3, 1-(4-(Cyanomethyl)-1-(2,2,2-trifluoroethyl)piperidin-4-yl)-4-(3-methylureido)-1H-pyrazole-3-carboxamide] the Ki ([1]; read-out: JAK1 Ki) was 6.4 nM and the Ki [2] was 15.7 nM.

Source: patent publication US11731943B2, “Therapeutic compounds, compositions and methods of use thereof” (priority 2016, dated 2023)
